Laboratory results from a melting point compilation (Tetko et al.; mined from patent text by program, amines drawn as free bases though some values may be those of a salt).

Row | Compound | melting point [°C]
1 | CCCCCCCCCCC(O)C(O)CNCc1ccccc1 (stereo not drawn) | 52.6 to 53
2 | CCN1C(=O)C(=O)c2cc(S(=O)(=O)N(C)C)ccc21 | 165 to 167
3 | N#Cc1ccc(Cn2cncc2CCNC(=O)[C@H]2CN(Cc3ccccc3)CCN2C(=O)CC2CCN(C(N)=O)CC2)cc1 | 118
4 | CNC(=O)N(O)Cc1ccc(Br)cc1 | 165 to 167
5 | O=C(CCC(F)([N+](=O)[O-])[N+](=O)[O-])NNC(=O)C(F)(F)C(F)(F)C(F)(F)F | 143 to 144
6 | COc1cc(C)cc(OC)c1N(CC1CCCCC1)C(=O)CNC(=O)c1cc2ccccc2n1CCC(=O)NC1C2CC3CC(C2)CC1C3 (stereo not drawn) | 96
7 | C=CC[C@H](CC(=O)OC(C)(C)C)C(=O)N[C@H](C(=O)N[C@H](COC)c1ccccc1)C(C)C | 155 to 157
8 | CS(=O)(=O)N[C@H]1C[C@H](C(=O)O)Nc2cc(Cl)cc(Cl)c21 (relative stereo) | 194 to 195
9 | CCCc1c(OCCCSc2ccc(C(=O)CCC(=O)O)c(F)c2)ccc(C(C)=O)c1O | 149 to 150
10 | O=C(NNc1ccc(Cl)cc1Cl)C(F)(F)F | 127 to 128
11 | O=c1[nH]c2ccc(I)cc2c(=O)n1-c1ccc(Cl)cc1 | 324 to 326
12 | CCCc1nn(-c2ccc(C(F)(F)F)cn2)cc1CCCOc1nn(C2CCCCC2)cc1CC(=O)O | 127 to 128
13 | COc1ncc([N+](=O)[O-])c(OC)n1 | 92 to 93
14 | CN1C(c2ccc(Br)cc2)C2C(=O)N(Cc3ccc4c(c3)OCO4)C(=O)C2C1(C)C (stereo not drawn) | 109 to 111
15 | CNC(=O)Nc1ccc(F)cc1Cl | 174 to 178
16 | S=P12SP3(=S)SP(=S)(S1)SP(=S)(S2)S3 | 165 to 166
17 | OC(Cn1cncn1)(Cn1cncc1C(F)(F)F)c1ccc(Cl)cc1Cl (stereo not drawn) | 190 to 192
18 | CCOC(=O)CCCCn1c(=O)[nH]c2ccc([N+](=O)[O-])cc2c1=O | 173 to 174
19 | Cc1nc2nc3cc(Cl)ccc3nc2[nH]1 | > 300
20 | CC(C)(CCCCCNS(=O)(=O)c1ccc(Cl)cc1)C(=O)O | 132 to 133
21 | CCOC(=O)CNc1ccccc1C(N)=O | 147 to 148
22 | CC(C)OC(=O)c1cc(-n2c(=O)[nH]c(CF)c(F)c2=O)c(F)cc1Cl | 171 to 173

Row | Compound | melting point [°C]
23 | COc1cc2c(cc1OC)-c1cc(Cl)nc(=O)n1CC2 | 235 to 236
24 | CC(C)(C#N)N1CCN(c2ccc(N3CC(CCC(N)=O)OC3=O)cc2F)CC1 (stereo not drawn) | 139 to 143
25 | Cn1cnc(=O)[nH]c1=O | 213 to 214
26 | FC(F)(F)c1cc(-c2ccc(Cl)cc2)[nH]c1C(F)(F)F | 72 to 73
27 | NC(=S)NCCSCc1c[nH]cn1 | 135 to 137
28 | CN(CCNc1ccc2ncc(Br)n2n1)C(=O)OC(C)(C)C | 128 to 129
29 | O=C1NC(Cc2c[nH]c3ccccc23)C(CCc2cc(C(F)(F)F)cc(C(F)(F)F)c2)N1CCN1CCOCC1 (stereo not drawn) | 207
30 | COC(=O)c1cncn1C1c2ccccc2C(F)(F)C1(C)C (stereo not drawn) | 96 to 97
31 | COc1ccc(C(=O)C(C)(C)Br)c(Cl)c1Cl | 72 to 73
32 | CC(C)C1(C)NC(c2ccc(C=O)cn2)=NC1=O (stereo not drawn) | 106 to 108
33 | O=c1oc2cc(N3CCN(CCF)CC3)ccc2cc1-c1nc2ccccc2s1 | 246
34 | Cc1cc2c(s1)Oc1cccc(C)c1NC2=O | 198 to 200
35 | Cc1csc2c(Br)c(C=O)sc12 | 127 to 129
36 | CN1C(=O)CCC2(C)C1=CCc1cc(F)ccc12 (stereo not drawn) | 110 to 111
37 | COc1cccc2c1nc(C1CC1)n2CC=C(C)C | 41 to 42
38 | COc1cccc(C(=O)OC2CC3C(=O)NC4(C(=O)NS(=O)(=O)C5CC5)CC4C=CCOCCCC(NC(=O)OC(C)(C)C)C(=O)N3C2)c1 (stereo not drawn) | 149 to 151
39 | CCOC(=O)CC[C@H](NC(=O)c1ccc(Br)cc1)C(=O)OCC | 82.5 to 83.5
40 | COC1=CC(=O)C2=C(C1=O)C1CCC2C1 (stereo not drawn) | 106 to 108
41 | C[C@H]1Cn2c(=O)[nH]c3c(Br)ccc(c32)CN1C(=O)OC(C)(C)C | 229
42 | CN(C)S(=O)(=O)c1cccc2c1Sc1ccc(OC3CCCCO3)cc1N2CCCN1CCC(CCO)CC1 (stereo not drawn) | 129 to 131
43 | CC(C)N(C(=S)Nc1ccccc1[N+](=O)[O-])C1CCN(CCc2ccccc2)CC1 | 101

More lines, now with the values ahead:

Row | melting point [°C] | Compound
44 | 110 to 111 | CN(OCc1ccccc1)C(=O)Nc1cccc(S(C)(=O)=O)c1
45 | 152 to 154 | OCCNc1ccnc2ccccc12
46 | 117 to 118 | CC(C)(C)OC(=O)N(Cc1ccccc1)C1CN(C(c2ccccc2)c2ccccc2)C1
47 | 108 to 109 | Fc1ccc(C2(Cl)CN(C(c3ccccc3)c3ccccc3)C2)cc1
48 | 97 to 98 | CS(=O)(=O)c1ccc(-c2ccccc2Cc2cccc(F)c2)cc1
49 | 157 to 168 | CN(C)c1n[nH]c(-c2ccc(Cl)cc2)c1CC(=O)O
50 | 170 to 171 | Cc1ccc(C(=O)NC(Cc2ccccc2)NC(=S)Nc2cccc([N+](=O)[O-])c2)cc1 (stereo not drawn)
51 | 222 | Cc1cc2c(-c3ccccc3)c(CC(=O)NCc3ccccc3)n(C)c(=O)c2cc1C
52 | 153 | COc1cc(N(CC(C)C)CC(C)C)ccc1CN1C(=O)C(C)(c2ccccc2Cl)c2cc(Cl)ccc21 (stereo not drawn)
53 | 70 | Cc1cc(C2(c3ccc(OC(F)F)cc3)N=C(N)N(C)C2=O)ccc1F (stereo not drawn)
54 | 83 to 86 | N#Cc1ccc(Oc2ccc(S(=O)(=O)NCc3ccc4ccccc4n3)cc2)c(Cl)c1
55 | 139 to 140 | CC1(C)C=C(c2ccccc2O)c2cc(C#N)ccc2O1
56 | 163 to 164 | Oc1ccccc1Nc1cc[nH]n1
57 | 158 to 159 | COCc1ccc(-c2coc3ccc(-c4nnc(C)o4)cc23)cc1
58 | 108 to 110 | COC(=O)c1cccc2c1Nc1cc(I)ccc1C2
59 | 123 to 124 | Cc1ccnc2c1C(=O)CC(c1cccc(Cl)c1Cl)C2 (stereo not drawn)
60 | 170 | COc1cc(C(=O)Nc2c(Cl)cncc2Cl)ccc1OC(F)F
61 | 135 to 136 | Oc1ccc(CCCCn2cncn2)cc1
62 | 108 to 110 | CC(C)(CCl)C(OC(=O)C(Cl)Cl)C(Oc1ccc(Cl)cc1)n1ccnc1 (stereo not drawn)
63 | 78 to 82 | CC(=O)N1CCN(C(=O)c2nc(-c3ccccc3)c(-c3ccc(=O)n(C(C)C)n3)s2)CC1
64 | 165 | CCOC(=O)c1c(C)nc2c(C(F)(F)F)cccc2c1O
65 | 115 | O=C(O)c1nc(-c2cc(Oc3ccc(Cl)cc3Cl)c(O)cc2Cl)no1
66 | 82 to 84 | CC(=S)NCC1CN(c2ccc(-c3csc(Cn4cncn4)n3)c(F)c2)C(=O)O1 (stereo not drawn)
67 | 157 to 158 | CCOC(=O)c1c(CSc2nccn2CC)nc2cc(OC)c(OC)cc2c1-c1ccc(OC)c(OC)c1
68 | 188 to 189 | Cc1ccc(C(=O)NC(NC(=NC#N)Nc2cccnc2)C(C)(C)C)cc1 (single isomer, unassigned; (+))
69 | 176 to 178 | Cc1nc(-n2cc(C(=O)c3ccccc3)nn2)sc1C(=O)NCc1ccccc1
70 | > 300 | O=C(O)c1cc([N+](=O)[O-])c(-c2ccncc2)[nH]c1=O
71 | 111 to 112 | COc1cc(COc2nn(-c3ccccc3)cc2/C=C\c2csc(C)n2)ccc1OCc1nc(-c2ccco2)oc1C

Row | melting point [°C] | Compound
72 | 197 to 200 | COc1cc(Nc2nccc(N3CCC(O)CC3)n2)ccc1-n1cnc(C)c1
73 | 169 to 172 | COc1ccc(Cn2nc3oc(=O)cc(C)c3c2C)cc1
74 | 92 to 94 | O=C(Nc1ccc(Oc2ccnc(NCCN3CCCC3)n2)c2ccccc12)c1cc(F)cc(N2CCCCC2)c1
75 | 64 to 65 | CCOC(=O)C(Cc1ccc(C(F)(F)F)cc1)C(=O)c1ccncc1 (stereo not drawn)
76 | 199 to 201 | CC(C)(CO)COc1ccc(-c2c(C(N)=O)oc3ccccc23)cc1C#N
77 | 155 to 158 | Cc1noc(NS(=O)(=O)c2ccc(C(F)(F)F)cc2)c1Br
78 | 233 | COc1ccc(C=CC(=O)N2CCc3c([nH]c4ccccc34)C2c2ccc3c(c2)OCO3)cc1OC (stereo not drawn)
79 | 153 to 155 | COC(=O)C(=NOCF)c1ccccc1Oc1ncnc(Oc2ccccc2Cl)c1F
80 | 158 to 160 | O=CNNc1ccc(NC(=S)NC2CCCCC2)cc1
81 | 170 to 171 | COc1ccc(-c2ncc(C(=O)O)s2)cc1OC1CCCC1
82 | > 300 | COc1ccccc1-c1c(O)c2ccc(Cl)cc2[nH]c1=O
83 | 115 | Cc1nc2c(OCc3c(Cl)ccc(S(=O)(=O)N4CCC[C@H]4C(=O)NCCCNC(=O)c4ccc(C=NN)cc4)c3Cl)cccn2c1Cl
84 | 141 | COC(=O)c1scc(-c2ccccc2)c1-c1ccc(SC)c(F)c1
85 | 153 to 156 | CC(=O)NCCc1c[nH]c2ccc(OC(=O)Oc3ccc([N+](=O)[O-])cc3)cc12
86 | 71 to 72 | COc1cc(O)cc2c1-c1c(O)cccc1C2=O
87 | 160 to 161 | O=C1NC(=O)C(Cc2ccc(OCCON=Cc3cncc(-c4ccccc4)c3)cc2)S1 (stereo not drawn)
88 | 194 to 196 | COC(=O)c1ccc(Nc2nccc(-c3ccncc3)n2)cc1
89 | 145 to 146 | COC(=O)c1cccc(OS(N)(=O)=O)c1
90 | 226 to 227 | Cc1ccc(-c2c(C(=O)NCc3ccccc3)n(CC[C@@H](C)CO)c(=O)c3ncccc23)cc1
91 | 108 | Cc1cc(-n2ccnc2)c2cccc(OCc3c(Cl)ccc(S(=O)(=O)N4CCC[C@H]4C(=O)N4CCN(c5ccccn5)CC4)c3Cl)c2n1
92 | 146 to 147 | O=C(O)Cc1ccccc1OCCn1ccnc1
93 | 148 | Cn1ncnc1COc1nn2c(-c3ccoc3)nncc2c1-c1ccccc1F
94 | 152 | CSc1nc(-c2ccc(Cl)cc2)nc(-c2ccccn2)n1
95 | 218 to 220 | COc1cc(OC)c(-c2cc3ccccc3[nH]2)cc1C=CC(=O)c1ccc(S(=O)(=O)NC(C)=O)cc1
96 | 121 | CCCCOc1cc(/C=C(\OCC)C(=O)O)ccc1OCCc1ccc(N(C)C(C)=O)cc1
97 | 126 to 129 | N#CCCc1cccc2c1N(Cc1cccc(/C=C/c3ccc4ccccc4n3)c1)CC2
98 | 88 to 90 | CCn1c(COCc2ccccc2)nc(C(C)C)c1Sc1cccc(F)c1
